Values joined by “and” are separate entries in the source; they are usually repeats but may differ in a detail not shown here. Equal values may be shown once.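 Values below derive from 48-hour exposures of cells grown in 96-well plates, with endpoints linearly interpolated between the two concentrations bracketing the appropriate inhibition level. The concentration for 50% growth inhibition is given as GI50. TGI: total growth inhibition.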
Assays:
Experiment in all cases: NCI-60 cell line screen, 48 h
HS 578T breast = test system: HS 578T breast
ACHN renal = test system: ACHN renal
NCI-H522 lung = test system: NCI-H522 lung
LOX IMVI melanoma = test system: LOX IMVI melanoma
UACC-257 melanoma = test system: UACC-257 melanoma
RXF 393 renal = test system: RXF 393 renal
TK-10 renal = test system: TK-10 renal
MOLT-4 leukemia = test system: MOLT-4 leukemia
SW-620 colon = test system: SW-620 colon
BT-549 breast = test system: BT-549 breast

Compound: Cc1cc(Nc2nc(N3CCOCC3)nc3ccccc23)n[nH]1
- GI50 (HS 578T breast): 1.44 µM
- TGI (HS 578T breast): 4.78 µM
- GI50 (ACHN renal): 2.03 µM
- TGI (ACHN renal): 18.5 µM
- GI50 (NCI-H522 lung): 17.4 µM
- TGI (NCI-H522 lung): > 100 µM
- GI50 (LOX IMVI melanoma): 4.35 µM
- TGI (LOX IMVI melanoma): 21.2 µM
- GI50 (UACC-257 melanoma): 87.7 µM
- TGI (UACC-257 melanoma): > 100 µM
- GI50 (RXF 393 renal): 1.35 µM
- TGI (RXF 393 renal): 6.17 µM
- GI50 (TK-10 renal): 1.52 µM
- TGI (TK-10 renal): 37.3 µM
- GI50 (MOLT-4 leukemia): 15 µM
- TGI (MOLT-4 leukemia): 77.9 µM
- GI50 (SW-620 colon): 4.81 µM
- TGI (SW-620 colon): 56.8 µM
- GI50 (BT-549 breast): 7.88 µM
- TGI (BT-549 breast): 46.7 µM

Compound: Cc1ccc(-c2nc3nc(-c4ccc(Cl)cc4)nc(N4CCCNCC4)c3o2)cc1
- GI50 (HS 578T breast): 1.93 µM
- TGI (HS 578T breast): 4.17 µM
- GI50 (ACHN renal): 1.71 µM
- TGI (ACHN renal): 3.09 µM
- GI50 (NCI-H522 lung): 1.75 µM
- TGI (NCI-H522 lung): 3.85 µM
- GI50 (LOX IMVI melanoma): 1.63 µM
- TGI (LOX IMVI melanoma): 3.15 µM
- GI50 (UACC-257 melanoma): 1.91 µM
- TGI (UACC-257 melanoma): 3.65 µM
- GI50 (RXF 393 renal): 1.58 µM
- TGI (RXF 393 renal): 3.03 µM
- GI50 (TK-10 renal): 1.78 µM
- TGI (TK-10 renal): 3.33 µM
- GI50 (MOLT-4 leukemia): 1.91 µM
- TGI (MOLT-4 leukemia): 3.72 µM
- GI50 (SW-620 colon): 1.7 µM
- TGI (SW-620 colon): 3.32 µM
- GI50 (BT-549 breast): 1.9 µM
- TGI (BT-549 breast): 3.61 µM

Compound: CC1=Cc2cc3[n-]c(cc4nc(cc5[n-]c(cc1n2)c(C)c5CCC(=O)O)C(CCC(=O)O)=C4C)cc3C.[Cu+2]
- GI50 (HS 578T breast): 38.7 µM
- TGI (HS 578T breast): > 100 µM
- GI50 (ACHN renal): > 1 µM and 38.8 µM
- TGI (ACHN renal): > 100 µM
- GI50 (NCI-H522 lung): 8.84 µM
- TGI (NCI-H522 lung): 30.4 µM
- GI50 (LOX IMVI melanoma): 28.1 µM
- TGI (LOX IMVI melanoma): > 65.3 µM
- GI50 (UACC-257 melanoma): > 1 µM and 40.8 µM
- TGI (UACC-257 melanoma): > 85.4 µM
- GI50 (RXF 393 renal): > 1 µM and 15.4 µM
- TGI (RXF 393 renal): > 1 µM and 33.9 µM
- GI50 (TK-10 renal): > 1 µM and 17.6 µM
- TGI (TK-10 renal): > 1 µM and 38.3 µM
- GI50 (MOLT-4 leukemia): > 1 µM and 46.3 µM
- TGI (MOLT-4 leukemia): > 88.7 µM
- GI50 (SW-620 colon): > 47.7 µM
- TGI (SW-620 colon): > 79.6 µM
- GI50 (BT-549 breast): 14.5 µM
- TGI (BT-549 breast): 27.8 µM

Compound: C=C1C(=O)O[C@H]2[C@H]1CC/C(COC(=O)NCCc1c[nH]c3ccccc13)=C\CC[C@@]1(C)O[C@@H]21
- GI50 (HS 578T breast): 10.3 µM
- TGI (HS 578T breast): 38.4 µM
- GI50 (ACHN renal): 1.37 µM
- TGI (ACHN renal): 2.71 µM
- GI50 (NCI-H522 lung): 1.26 µM
- TGI (NCI-H522 lung): 2.84 µM
- GI50 (LOX IMVI melanoma): 0.788 µM
- TGI (LOX IMVI melanoma): 2.23 µM
- GI50 (UACC-257 melanoma): 2 µM
- TGI (UACC-257 melanoma): 4.83 µM
- GI50 (RXF 393 renal): 1.16 µM
- TGI (RXF 393 renal): 2.56 µM
- GI50 (TK-10 renal): 1.92 µM
- TGI (TK-10 renal): 3.55 µM
- GI50 (MOLT-4 leukemia): 1.91 µM
- TGI (MOLT-4 leukemia): 6.59 µM
- GI50 (SW-620 colon): 1.2 µM
- TGI (SW-620 colon): 2.81 µM
- GI50 (BT-549 breast): 1.27 µM
- TGI (BT-549 breast): 2.82 µM

Compound: Cn1c(Cc2ccccc2)nc2cc3ccccc3cc21
- GI50 (HS 578T breast): 22.2 µM
- TGI (HS 578T breast): 57.7 µM
- GI50 (ACHN renal): 31.7 µM
- TGI (ACHN renal): > 100 µM
- GI50 (NCI-H522 lung): 34.5 µM
- TGI (NCI-H522 lung): > 100 µM
- GI50 (LOX IMVI melanoma): 24 µM
- TGI (LOX IMVI melanoma): 64.7 µM
- GI50 (UACC-257 melanoma): 26.8 µM
- TGI (UACC-257 melanoma): 61.9 µM
- GI50 (RXF 393 renal): 35.6 µM
- TGI (RXF 393 renal): > 100 µM
- GI50 (TK-10 renal): 47.9 µM
- TGI (TK-10 renal): > 100 µM
- GI50 (MOLT-4 leukemia): 32.6 µM
- TGI (MOLT-4 leukemia): > 100 µM
- GI50 (SW-620 colon): 17.2 µM
- TGI (SW-620 colon): 38.3 µM
- GI50 (BT-549 breast): 21.2 µM
- TGI (BT-549 breast): 45.3 µM

Compound: COc1cc2c3c(n(CCCn4ccnc4)c(=O)c2cc1OC)-c1ccccc1C3=O
- GI50 (HS 578T breast): 11.6 µM
- TGI (HS 578T breast): > 100 µM
- GI50 (ACHN renal): < 0.0127 µM
- TGI (ACHN renal): 0.0486 µM
- GI50 (NCI-H522 lung): < 0.01 µM
- TGI (NCI-H522 lung): 0.0612 µM
- GI50 (LOX IMVI melanoma): < 0.0124 µM
- TGI (LOX IMVI melanoma): 0.0385 µM
- TGI (UACC-257 melanoma): 0.199 µM
- GI50 (RXF 393 renal): < 0.01 µM
- GI50 (TK-10 renal): 0.923 µM
- TGI (TK-10 renal): 27.5 µM
- GI50 (MOLT-4 leukemia): < 0.01 µM
- TGI (MOLT-4 leukemia): < 0.0167 µM
- GI50 (SW-620 colon): < 0.0206 µM
- GI50 (BT-549 breast): 0.0623 µM
- TGI (BT-549 breast): 30.7 µM

Compound: O=C(CSc1nc2sc3c(c2c(=O)n1-c1ccccc1)CCCCC3)N/N=C/c1ccc(F)cc1
- GI50 (HS 578T breast): 1.01 µM
- TGI (HS 578T breast): 4.96 µM
- GI50 (ACHN renal): 4.76 µM
- TGI (ACHN renal): 34.6 µM
- GI50 (NCI-H522 lung): 6.77 µM
- TGI (NCI-H522 lung): 33 µM
- GI50 (LOX IMVI melanoma): 2.35 µM
- TGI (LOX IMVI melanoma): 14.8 µM
- GI50 (UACC-257 melanoma): 7.54 µM
- TGI (UACC-257 melanoma): > 100 µM
- GI50 (RXF 393 renal): 2.39 µM
- TGI (RXF 393 renal): 7.18 µM
- GI50 (TK-10 renal): 1.6 µM
- TGI (TK-10 renal): 4.16 µM
- GI50 (MOLT-4 leukemia): 9.09 µM
- TGI (MOLT-4 leukemia): > 100 µM
- GI50 (SW-620 colon): 3.14 µM
- TGI (SW-620 colon): 33.6 µM
- GI50 (BT-549 breast): 3.66 µM
- TGI (BT-549 breast): 17.8 µM

Compound: C/C=C/C/C=C/CCC(=O)C1OC1C(N)=O (configuration not stated)
- TGI (HS 578T breast): 76.2 µM
- TGI (ACHN renal): 28.5 µM
- TGI (NCI-H522 lung): 25.8 µM
- TGI (LOX IMVI melanoma): 26.6 µM
- TGI (UACC-257 melanoma): 31.1 µM
- TGI (RXF 393 renal): 21.7 µM
- TGI (TK-10 renal): 25.9 µM
- TGI (MOLT-4 leukemia): 51.7 µM
- TGI (SW-620 colon): 42.3 µM
- TGI (BT-549 breast): 24.6 µM

Compound: O=C1OC2(c3ccccc31)c1cc(I)c(O)c(I)c1Oc1c2cc(I)c(O)c1I
- TGI (HS 578T breast): > 100 µM
- TGI (ACHN renal): > 100 µM
- TGI (NCI-H522 lung): 78.5 µM
- TGI (LOX IMVI melanoma): > 100 µM
- TGI (UACC-257 melanoma): > 100 µM
- TGI (RXF 393 renal): > 100 µM
- TGI (TK-10 renal): > 100 µM
- TGI (MOLT-4 leukemia): > 100 µM
- TGI (SW-620 colon): > 100 µM
- TGI (BT-549 breast): > 100 µM

Compound: COc1cc(C(=O)O)ccc1NC(=O)[C@@H]1N[C@@H](CC(C)(C)C)[C@](C#N)(c2ccc(Cl)cc2F)[C@H]1c1cccc(Cl)c1F
- GI50 (HS 578T breast): 3.9 µM
- TGI (HS 578T breast): 15.8 µM
- GI50 (ACHN renal): 0.0496 µM
- TGI (ACHN renal): 6.82 µM
- GI50 (NCI-H522 lung): 2.72 µM
- TGI (NCI-H522 lung): 10.8 µM
- GI50 (LOX IMVI melanoma): 0.148 µM
- TGI (LOX IMVI melanoma): 6.84 µM
- GI50 (UACC-257 melanoma): 0.145 µM
- TGI (UACC-257 melanoma): 1.83 µM
- GI50 (RXF 393 renal): 3.55 µM
- TGI (RXF 393 renal): 10.3 µM
- GI50 (TK-10 renal): 5.28 µM
- TGI (TK-10 renal): 21.2 µM
- GI50 (MOLT-4 leukemia): 0.083 µM
- TGI (MOLT-4 leukemia): 2.07 µM
- GI50 (SW-620 colon): 3.02 µM
- TGI (SW-620 colon): > 26.3 µM
- GI50 (BT-549 breast): 2.76 µM
- TGI (BT-549 breast): 7.11 µM

Compound: CCOC(=O)CCc1c(C)c2ccc(O)cc2oc1=O
- TGI (HS 578T breast): > 100 µM
- TGI (ACHN renal): > 100 µM
- TGI (NCI-H522 lung): > 100 µM
- TGI (LOX IMVI melanoma): > 100 µM
- TGI (UACC-257 melanoma): > 100 µM
- TGI (RXF 393 renal): > 100 µM
- TGI (TK-10 renal): > 100 µM
- TGI (MOLT-4 leukemia): > 100 µM
- TGI (SW-620 colon): > 100 µM
- TGI (BT-549 breast): > 100 µM

From PubChem BioAssay (NCI)
